These results are taken from PMC12445744, “Molecular docking to homology models of human and Trypanosoma brucei ERK8 that identified ortholog-specific inhibitors” (PLOS Neglected Tropical Diseases, 2025).

What is called pIC50 is the IC50 on a negative log10 scale, so that one unit is a factor of ten.

Assay [1] deals with T1, HsERK8 (Homo sapiens, UniProt Q8TD08).
T1 construct: plasmid pGEX2T expressing the full-length hERK8 coding region; made in house; host or cells: Escherichia coli Rosetta 2 (DE3)
T1 sequence (Q8TD08 1-544): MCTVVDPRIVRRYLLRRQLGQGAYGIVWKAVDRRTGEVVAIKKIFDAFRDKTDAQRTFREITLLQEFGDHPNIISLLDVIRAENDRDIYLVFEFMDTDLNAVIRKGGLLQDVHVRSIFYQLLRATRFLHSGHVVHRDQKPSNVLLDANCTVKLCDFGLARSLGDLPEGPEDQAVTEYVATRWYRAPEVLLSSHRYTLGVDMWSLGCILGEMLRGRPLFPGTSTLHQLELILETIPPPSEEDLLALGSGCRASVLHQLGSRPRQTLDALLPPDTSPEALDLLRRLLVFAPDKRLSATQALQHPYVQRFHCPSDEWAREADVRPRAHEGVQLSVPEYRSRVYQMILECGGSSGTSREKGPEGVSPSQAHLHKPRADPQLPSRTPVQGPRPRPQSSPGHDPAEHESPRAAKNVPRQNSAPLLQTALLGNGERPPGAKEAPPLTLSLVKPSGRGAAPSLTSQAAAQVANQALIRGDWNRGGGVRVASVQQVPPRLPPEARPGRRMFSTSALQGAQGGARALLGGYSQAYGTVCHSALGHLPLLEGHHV
The following applies: cited from earlier work.

The test system of assay [2] is T. brucei. The settings on record: cited from earlier work.
For assay [3], the target named is T2, TbERK8 (Trypanosoma brucei brucei, UniProt Q38B88).
T2 sequence (Q38B88 1-442): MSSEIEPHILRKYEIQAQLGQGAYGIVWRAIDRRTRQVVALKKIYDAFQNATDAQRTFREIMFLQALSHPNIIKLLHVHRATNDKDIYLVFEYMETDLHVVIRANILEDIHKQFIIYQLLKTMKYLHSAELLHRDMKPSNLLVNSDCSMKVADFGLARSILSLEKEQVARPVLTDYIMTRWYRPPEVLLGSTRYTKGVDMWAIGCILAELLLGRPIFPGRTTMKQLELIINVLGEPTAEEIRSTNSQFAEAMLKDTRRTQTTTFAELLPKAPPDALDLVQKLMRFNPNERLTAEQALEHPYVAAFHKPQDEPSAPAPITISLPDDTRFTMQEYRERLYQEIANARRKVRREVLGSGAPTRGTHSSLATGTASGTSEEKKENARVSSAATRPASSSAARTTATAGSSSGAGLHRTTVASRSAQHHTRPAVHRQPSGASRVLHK
The settings on record: cited from earlier work.

Assay [4] has as its target T2, TbERK8. Put plainly: Luciferase-based kinase inhibition assay (ATP luminescence), GST-tagged TbERK8 with MBP substrate. The format is biochemical. Set-up: raw luminescence, TbERK8: unit of the concentration uncertain. The following applies: for raw luminescence, TbERK8: sheet Kinase_glo_080924_IFPS (2), replicate wells. As for the experimental part:
(§1) Escherichia coli strain Rosetta 2 (DE3) (Cat# 71397, MilliporeSigma, Burlington, MA) was transformed with the plasmid pGEX2T expressing the full-length hERK8 coding region or pGSTAg expressing the full-length TbERK8 coding region. One liter of Terrific Broth media containing 100 μg/ml Ampicillin and 30 μg/ml chloramphenicol in 2 L baffled flasks was inoculated with 25 mL from an overnight culture of Rosetta 2 strains harboring either the pGEX2T-hERK8 or pGSTAg-TbERK8 plasmid. Two baffled flasks were inoculated with each overnight strain and incubated and shaken at 175 RPM in a New Brunswick Innova 44R Incubator Shaker (Fischer Scientific, Pittsburgh, PA) at 37 °C until the cultures reached an O.D.600 of 0.94. Once the cultures in the flask reached the target O.D.600, the flasks were cooled to 4 °C in an ice water bath. The cooled cultures were induced by adding isopropyl β-D-1-thiogalactopyranoside (IPTG) to a final concentration of 0.1 mM and shaken at 16 °C for 16 hours at 175 RPM in a New Brunswick Innova 44R Incubator Shaker (Fischer Scientific, Pittsburgh, PA). On the next day, the cultures were pelleted by centrifugation at 9000 xg in a JLA 10.500 rotor (Beckman Coulter; Brea, CA), and the media was decanted. The pellet was flash-frozen in liquid nitrogen and then thawed on ice. The thawed pellet was resuspended in lysis buffer (25 mM Tris, 75 mM NaCl, 0.5% TritonX-100 and 0.5% Nonidet P-40, 1 mM phenylmethanesulfonyl fluoride, 1 mM benzamidine⋅HCl) and lysed using a microfluidizer M-110P from Microfluidics (Westwood, MA). The crude lysates were clarified by centrifugation at 140,000 xg in a 45Ti rotor (Beckman Coulter, Brea, CA) for 30 min at 4°C. The clarified lysate was loaded by gravity to a 3 mL glutathione agarose resin column (Cat# G-250–10, GOLDBIO, St. Louis, MO) formed in a 1.5 × 20 cm glass chromatography column (Cat# 7371522, Bio-Rad, Hercules, CA). The column was washed with 30 mL of PBS (pH 7.4) containing 1 mM DTT. Elution buffer (50 mM Tris buffer pH 8.0 containing 10 mM reduced glutathione and 1 mM DTT was added to the washed column), and 1 mL fractions were collected by gravity and examined by SDS-PAGE stained by Coomassie dye. Peak fractions pooled from the elution were dialyzed (4x 1:500 dilutions) in kinase buffer (30 mM Tris, pH 7.4, 10 mM MgCl2, 1 mM DTT, 5% glycerol).
(§2) We performed kinase assays in buffer K (30 mM Tris pH 7.4, 10 mM MgCl2, 1 mM DTT, 5% glycerol, 50 μM ATP, and 0.1 mg/mL BSA) at 30°C for 30 min in 30 μL reactions. GST-tagged HsERK8 and TbERK8 were tested using myelin basic protein (MBP) (Cat# 13–110, Millipore, Darmstadt, Germany) as the substrate at increasing concentrations to determine the optimal activity for the assay. ATP consumption was determined by adding equal volumes of the kinase assay reagent (Promega, Cat# V5601, Madison, WI) following the manufacturer’s protocol. Luminescence was measured using the microplate reader (SpectraMax L, Molecular Devices, Sunnyvale, CA).
(§3) These compounds were screened for kinase inhibition utilizing a luciferase-based assay. Briefly, the kinases were tested using MBP as the substrate at a 14-fold molar excess in 384-well flat-bottom white plates (BRANDTECH Scientific, Cat# 781681, Essex, CT). These compounds were tested at concentrations ranging from […] to 150 nM. The kinases plus MBP substrate reactions were incubated with each inhibitor for 30 minutes at 30°C. Equal volumes of kinase assay mix Promega (Cat# V5601, Madison, WI) were added to the kinase/inhibitor reaction after 30 minutes, following the manufacturer’s protocol. ATP luminescence was measured using a microplate reader (SpectraMax L, Molecular Devices, Sunnyvale, CA). IC50 values were calculated from assays done in triplicate by fitting the data using Prism 8.1.1 (GraphPad).

The target of assay [5] is T1, HsERK8. Kind of assay: Luciferase-based kinase inhibition assay (ATP luminescence), GST-tagged HsERK8 with MBP substrate. The following applies: for raw luminescence, HsERK8: sheet Kinase_glo_080924_IFPS (2), replicate wells. The format is biochemical. The method, then:
as §1, §2, §3

Setting [6] is: at any tested concentration (10 mM to 150 nM).

The structures appear in SMILES notation. pIC50: −log10 of the molar value. Several values for one entry are separate records, joined by “and”; a condition that tells them apart may be missing. Equal entries are not always repeated.

Take `Cc1cc(Nc2nc(N[C@@H](C)c3ccc(F)cc3)c(C#N)cc2F)n[nH]1` [AZ960, (S)-5-Fluoro-2-(1-(4-fluorophenyl)ethylamino)-6-(5-methyl-1H-pyrazol-3-ylamino)nicotinonitrile]: in assay [1], the “inhibition of HsERK8” value was “inhibiting HsERK8 poorly”. Moreover, the “effect on T. brucei parasite” value in assay [2] is recorded as “killed the parasite”. In addition, the pIC50 in assay [3] (read-out: IC50 for TbERK8 (published)) is 6.92.

As to `Cc1ncc(-c2ccnc(Nc3ccc(S(C)(=O)=O)cc3)n2)n1C(C)C` [AZD5438], the “inhibition of HsERK8” value in assay [1] is “potent inhibitor”. In assay [3], the “inhibition of TbERK8” value is recorded as “potent inhibitor”.

For `C[C@]12CCC(=O)C=C1CC[C@H]1[C@@H]3CC[C@](O)(C(=O)CO)[C@@]3(C)C[C@H](O)[C@@]12F` [Fludrocortisone], the “raw luminescence, TbERK8” value in assay [4] (0.00015 (unit uncertain) compound) is 1859.59 RLU and 2054.98 RLU and 1825.9 RLU; in assay [4] (0.00061 (unit uncertain) compound), 756.861 RLU and 669.272 RLU and 696.222 RLU; in assay [4] (0.00244 (unit uncertain) compound) it was 839.958 RLU and 756.861 RLU and 772.582 RLU; in assay [4] (0.00977 (unit uncertain) compound), 471.634 RLU and 512.06 RLU and 359.34 RLU; in assay [4] (0.03906 (unit uncertain) compound), 947.761 RLU and 727.664 RLU and 806.27 RLU; in assay [4] (0.15625 (unit uncertain) compound), 579.437 RLU and 552.486 RLU and 756.861 RLU. In addition, the “raw luminescence, TbERK8” value is 736.648 RLU and 693.976 RLU and 673.763 RLU in assay [4] (0.62500 (unit uncertain) compound); 1122.94 RLU and 1073.53 RLU and 1107.22 RLU in assay [4] (2.50000 (unit uncertain) compound); 4505.23 RLU and 4303.1 RLU and 4100.97 RLU in assay [4] (10.00000 (unit uncertain) compound, signal = ATP left). For the same compound, in assay [4] (setting [6]), the “inhibition of kinase activity of TbERK8” value was “did not inhibit”. The “raw luminescence, HsERK8” value in assay [5] (0.00015 mM compound) is 3640.57 RLU and 3844.94 RLU and 3813.5 RLU; in assay [5] (0.00061 mM compound), 4118.94 RLU and 4395.18 RLU and 4579.35 RLU; in assay [5] (0.00244 mM compound), 4696.13 RLU and 4963.39 RLU and 5212.68 RLU; in assay [5] (0.00977 mM compound), 4772.49 RLU and 5547.32 RLU and 5378.88 RLU; in assay [5] (0.03906 mM compound) it was 6005.48 RLU and 7079.01 RLU and 7018.37 RLU; in assay [5] (0.15625 mM compound) it was 6266 RLU and 7171.09 RLU and 7216.01 RLU. In addition, the “raw luminescence, HsERK8” value in assay [5] (0.62500 mM compound) was 7168.84 RLU and 8628.66 RLU and 8372.63 RLU; in assay [5] (2.50000 mM compound), 6252.52 RLU and 7644.97 RLU and 7582.08 RLU; in assay [5] (10.00000 mM compound, signal = ATP left), 11251.8 RLU and 11631.4 RLU and 11334.9 RLU. For the same compound, in assay [5] (setting [6]), the “inhibition of kinase activity of HsERK8” value was “did not inhibit”.

For the compound `Cn1cc(C2=C(c3cn(CCCSC(=N)N)c4ccccc34)C(=O)NC2=O)c2ccccc21` [Ro318220, 3-{3-[4-(1-Methyl-1H-indol-3-yl)-2,5-dioxo-2,5-dihydro-1H-pyrrol-3-yl]-1H-indol-1-yl}propyl carbamimidothioate], in assay [1] (HsERK8 over TbERK8), the “greater potency inhibiting HsERK8 than TbERK8” value is 100–300 fold. The pIC50 in assay [1] (read-out: IC50 for HsERK8 (reported)) was 8.00 to 8.30.
